Format in all cases: biochemical
The target in experiment [1] is PKC theta (Homo sapiens, UniProt Q04759). As to the kind of experiment: PKC Theta I coupled-enzyme (NADH absorbance) kinase assay. Conditions: 18 nM PKC theta, 240 μM ATP, 30° C., absorbance at 340 nm. How it is done:
An assay buffer solution was prepared which consisted of 100 mM HEPES (pH 7.5), 10 mM MgCl2, 25 mM NaCl, 0.1 mM EDTA and 0.01% Brij. […] To 60 μL of this enzyme buffer, in a 384 well plate, was added 2 μL of VRT stock solution in DMSO. The mixture was allowed to equilibrate for 10 mins at 30° C. […] Ki values were calculated from initial rate data by non-linear regression using the Prism software package (Prism 4.0a, Graphpad Software, San Diego, Calif.).

In experiment [2] the target is PKC delta kinase (Homo sapiens, UniProt Q05655). As to the kind of experiment: PKC Delta coupled-enzyme kinase assay. Conditions: 46 nM PKC delta, 150 μM ATP, 30° C.; read-out: Ki PKC delta. A digest of the protocol: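 Assay buffer was 100 mM HEPES pH 7.5, 10 mM MgCl2, 25 mM NaCl, 0.1 mM EDTA, 0.01% Brij. Enzyme buffer was equilibrated with compound in DMSO for 10 min at 30 °C. Ki values were derived by non-linear regression of initial rate data.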

The target of experiment [3] is PKC alpha kinase (Homo sapiens, UniProt P17252). Description: PKC Alpha coupled-enzyme kinase assay. The following applies: 4.5 nM PKC alpha, 130 μM ATP, 30° C. How it is done:
An assay buffer solution was prepared which consisted of 100 mM HEPES (pH 7.5), 10 mM MgCl2, 25 mM NaCl, 0.1 mM EDTA, 100 μM CaCl2 and 0.01% Brij. […] To 16 μL of this enzyme buffer, in a 384 well plate, was added 1 μL of VRT stock solution in DMSO. The mixture was allowed to equilibrate for 10 mins at 30° C. The enzyme reaction was initiated by the addition of 16 μL stock ATP solution prepared in assay buffer to a final assay concentration of 130 μM. Initial rate data was determined from the rate of change of absorbance at 340 nm (corresponding to stoichiometric consumption of NADH) using a Molecular Devices Spectramax plate reader (Sunnyvale, Calif.) over 15 mins at 30° C. For each Ki determination 12 data points covering the VRT concentration range of 0-20 μM were obtained in duplicate (DMSO stocks were prepared from an initial 10 mM VRT stock with subsequent 1:2 serial dilutions). Ki values were calculated from initial rate data by non-linear regression using the Prism software package (Prism 4.0a, Graphpad Software, San Diego, Calif.).

SMILES strings stand for the structures. Some results are limits rather than exact numbers.

PKC delta kinase, sequence (Q05655 whole entry): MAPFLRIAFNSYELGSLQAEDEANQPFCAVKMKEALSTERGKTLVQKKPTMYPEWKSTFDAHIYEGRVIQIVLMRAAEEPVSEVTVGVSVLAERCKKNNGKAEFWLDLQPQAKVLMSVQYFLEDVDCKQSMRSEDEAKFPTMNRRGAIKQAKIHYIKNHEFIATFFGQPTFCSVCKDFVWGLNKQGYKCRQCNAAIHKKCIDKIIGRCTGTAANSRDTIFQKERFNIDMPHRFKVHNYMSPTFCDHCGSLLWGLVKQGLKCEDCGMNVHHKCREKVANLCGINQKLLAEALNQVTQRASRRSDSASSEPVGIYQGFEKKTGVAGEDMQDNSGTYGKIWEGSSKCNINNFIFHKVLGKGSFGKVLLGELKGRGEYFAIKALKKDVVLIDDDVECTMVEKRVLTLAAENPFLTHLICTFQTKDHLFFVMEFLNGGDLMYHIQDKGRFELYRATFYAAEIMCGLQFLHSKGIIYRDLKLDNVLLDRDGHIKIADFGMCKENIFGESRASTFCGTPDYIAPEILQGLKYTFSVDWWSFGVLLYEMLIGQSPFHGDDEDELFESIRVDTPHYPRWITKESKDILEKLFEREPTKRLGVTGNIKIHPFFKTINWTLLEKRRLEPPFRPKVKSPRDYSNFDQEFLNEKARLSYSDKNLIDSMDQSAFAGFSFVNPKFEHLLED
PKC theta, sequence (Q04759 whole entry): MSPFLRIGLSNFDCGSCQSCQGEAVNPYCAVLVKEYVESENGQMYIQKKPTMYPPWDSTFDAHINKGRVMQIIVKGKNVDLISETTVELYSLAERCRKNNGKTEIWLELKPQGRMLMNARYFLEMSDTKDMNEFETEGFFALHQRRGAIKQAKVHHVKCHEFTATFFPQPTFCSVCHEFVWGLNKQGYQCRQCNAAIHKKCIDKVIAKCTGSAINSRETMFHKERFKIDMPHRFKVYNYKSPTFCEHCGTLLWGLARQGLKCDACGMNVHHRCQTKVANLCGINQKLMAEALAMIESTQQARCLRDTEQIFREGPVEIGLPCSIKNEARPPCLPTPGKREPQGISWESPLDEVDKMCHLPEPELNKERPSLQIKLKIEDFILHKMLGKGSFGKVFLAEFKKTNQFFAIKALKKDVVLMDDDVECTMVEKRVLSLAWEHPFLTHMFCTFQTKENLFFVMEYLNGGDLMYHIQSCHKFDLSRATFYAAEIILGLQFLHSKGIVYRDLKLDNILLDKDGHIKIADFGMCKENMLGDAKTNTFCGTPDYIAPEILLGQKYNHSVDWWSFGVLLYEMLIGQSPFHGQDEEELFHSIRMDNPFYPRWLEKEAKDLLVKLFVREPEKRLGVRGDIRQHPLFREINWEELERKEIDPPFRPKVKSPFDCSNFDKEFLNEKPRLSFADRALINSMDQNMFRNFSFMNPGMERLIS

On to `CC(C)(O)C(=O)N1CCCN(c2cccc(C(=O)c3cccnc3N)n2)CC1` [compound 19], for which the values for the Ki in experiment [1] and in experiment [2] were 500 to 2800 nM and over 2800 nM, respectively.
Take `Nc1ncccc1C(=O)c1nc(N2CCC(N)C2)ccc1C(F)(F)F` (stereo not drawn) [compound 369]: the Ki in experiment [1], in experiment [2] and in experiment [3] was 500 to 2800 nM throughout.
On to `CC(C)(C)C(O)C(=O)N1CCCN(c2cccc(C(=O)c3cccnc3N)n2)CC1` (stereo not drawn) [compound 41], for which the Ki was 500 to 2800 nM in experiment [1] and over 2800 nM in experiment [2].
Consider `Nc1ncccc1C(=O)c1nc(N2CCNCC2)ccc1C#CC1CC1` [compound 409], for which the Ki in experiment [1], in experiment [2] and in experiment [3] was 500 to 2800 nM throughout.
With `CC(C)(N)CNc1ccc(C(F)(F)F)c(C(=O)c2cccnc2N)n1` [compound 368], the Ki in experiment [1], in experiment [2] and in experiment [3] was 500 to 2800 nM each time.
`COC(=O)N1CCCN(c2cccc(C(=O)c3cccnc3N)n2)CC1` [compound 9]: the Ki in experiment [1] and in experiment [2] was 500 to 2800 nM in each case.
For `Nc1ncccc1C(=O)c1nc(NC2CCCCC2N)ccc1C(F)(F)F` (stereo not drawn) [compound 414], the Ki in experiment [1], in experiment [2] and in experiment [3] was 500 to 2800 nM each time.
For the compound `CNCCN(C)c1ccc(C(F)(F)F)c(C(=O)c2cccnc2N)n1` [compound 380], the Ki in experiment [1], in experiment [2] and in experiment [3] was 500 to 2800 nM throughout.
On to `Nc1ncccc1C(=O)c1cccc(N2CCCN(C(=O)c3ccccc3)CC2)n1` [compound 32], for which the results for the Ki in experiment [1] and in experiment [2] were 500 to 2800 nM and over 2800 nM, respectively.
For `CNc1cnc(N)c(C(=O)c2cccc(N3CCCNCC3)n2)c1` [compound 220], the Ki in experiment [1] and in experiment [3] was 500 to 2800 nM in each case.
Take `Nc1ncccc1C(=O)c1cccc(Br)n1` [compound 390]: the Ki in experiment [1], in experiment [2] and in experiment [3] was 500 to 2800 nM in each case.
Turning to `Nc1ncccc1C(=O)c1cccc(N2CCCN(C(=O)CC3CCCCC3)CC2)n1` [compound 39], the Ki in experiment [1] is 500 to 2800 nM; in experiment [2], over 2800 nM.
As for `NC(=O)CNc1ccc(C(F)(F)F)c(C(=O)c2cccnc2N)n1` [compound 386], the Ki in experiment [1], in experiment [2] and in experiment [3] was 500 to 2800 nM in each case.
`Nc1ncccc1C(=O)c1nc(N2CCNCC2)ccc1Cc1ccccc1` [compound 417]: the Ki in experiment [1], in experiment [2] and in experiment [3] was 500 to 2800 nM each time.
With `Nc1ncccc1C(=O)c1nc(NCCCO)ccc1C(F)(F)F` [compound 419], the Ki in experiment [1], in experiment [2] and in experiment [3] was 500 to 2800 nM in each case.
As for `CCCNc1ccc(C(F)(F)F)c(C(=O)c2cccnc2N)n1` [compound 398], the Ki in experiment [1], in experiment [2] and in experiment [3] was 500 to 2800 nM each time.
`Cc1cc(Nc2ccc(C(F)(F)F)c(C(=O)c3cccnc3N)n2)[nH]n1` [compound 393]: the Ki in experiment [1], in experiment [2] and in experiment [3] was 500 to 2800 nM in each case.
Regarding `Nc1ncccc1C(=O)c1nc(NCC2CCCCN2)ccc1C(F)(F)F` (stereo not drawn) [compound 382], the Ki in experiment [1], in experiment [2] and in experiment [3] was 500 to 2800 nM in each case.
`Nc1ncccc1C(=O)c1nc(N2CCNCC2)ccc1C1CC1` [compound 354]: the Ki in experiment [1] was 500 to 2800 nM; in experiment [2] it was 500 to 2800 nM; in experiment [3] it was over 2800 nM.
Take `Nc1ncccc1C(=O)c1ccn(C2CCNCC2)n1` [compound 184]: the Ki in experiment [1], in experiment [2] and in experiment [3] was 500 to 2800 nM throughout.
On to `Nc1ncccc1C(=O)c1nc(NC2CCCNC2)ccc1C(F)(F)F` (stereo not drawn) [compound 381], for which the Ki in experiment [1], in experiment [2] and in experiment [3] was 500 to 2800 nM throughout.
`Cc1cccc(C)c1C1CN(c2cccc(C(=O)c3cccnc3N)n2)CCN1` (stereo not drawn) [compound 337]: the Ki in experiment [1] was 500 to 2800 nM; in experiment [2], over 2800 nM; in experiment [3], 500 to 2800 nM.
Take `Cc1cc(C(=O)c2cccnc2N)nn1C1CCCNCC1` (stereo not drawn) [compound 217]: the values for the Ki in experiment [1], in experiment [2] and in experiment [3] were 500 to 2800 nM, 500 to 2800 nM and over 2800 nM, respectively.
As to `Nc1ncccc1C(=O)c1nc(N2CCNC(c3ccccc3)C2)ccc1C#CC1CC1` (stereo not drawn) [compound 408], the Ki in experiment [1], in experiment [2] and in experiment [3] was 500 to 2800 nM each time.
Regarding `Nc1ncccc1C(=O)c1ccn(C2CCCNCC2)n1` (stereo not drawn) [compound 203], the Ki in experiment [1], in experiment [2] and in experiment [3] was 500 to 2800 nM each time.
For the compound `CC(C)C(CO)Nc1ccc(C(F)(F)F)c(C(=O)c2cccnc2N)n1` (stereo not drawn) [compound 399], the Ki in experiment [1], in experiment [2] and in experiment [3] was 500 to 2800 nM throughout.
As to `Nc1ncccc1C(=O)c1cccc(N2CCNC(Cc3cnc[nH]3)C2)n1` (stereo not drawn) [compound 304], the Ki in experiment [1] was 500 to 2800 nM; in experiment [2], 500 to 2800 nM; in experiment [3] it was over 2800 nM.
Take `CNCCNc1ccc(C(F)(F)F)c(C(=O)c2cccnc2N)n1` [compound 373]: the Ki in experiment [1], in experiment [2] and in experiment [3] was 500 to 2800 nM in each case.
In the case of `Nc1ncccc1C(=O)c1nc(NC2CCCC(N)C2)ccc1C(F)(F)F` (stereo not drawn) [compound 389], the Ki in experiment [1], in experiment [2] and in experiment [3] was 500 to 2800 nM in each case.
On to `CC(C)C[C@H]1CN(c2ccc(C#CC3CC3)c(C(=O)c3cccnc3N)n2)CCN1` [compound 407], for which the Ki in experiment [1], in experiment [2] and in experiment [3] was 500 to 2800 nM in each case.
Take `Nc1ncccc1C(=O)c1nc(NC2CCNC2)ccc1C(F)(F)F` (stereo not drawn) [compound 376]: the Ki in experiment [1], in experiment [2] and in experiment [3] was 500 to 2800 nM each time.
Regarding `Cc1cc(C(=O)c2cccnc2N)nc(N2CCCNCC2)c1` [compound 189], the Ki in experiment [1] was 500 to 2800 nM.
The same measure, in the same setting: in the case of `NC(=O)C1CCCN(c2cccc(C(=O)c3cc(Br)cnc3N)n2)C1` (stereo not drawn) [compound 122] it was 500 to 2800 nM; in that of `COC(=O)N1CCCN(c2cccc(C(=O)c3cc(Br)cnc3N)n2)CC1` [compound 69], 500 to 2800 nM; in that of `Cc1cn(C2CCCNCC2)nc1C(=O)c1cccnc1N` (stereo not drawn) [compound 212], 500 to 2800 nM.
Turning to `Nc1ncccc1C(=O)c1nc(NC2CNC2)ccc1C(F)(F)F` [compound 375], the Ki in experiment [1], in experiment [2] and in experiment [3] was 500 to 2800 nM throughout.
Turning to `NCCOc1ccc(C(F)(F)F)c(C(=O)c2cccnc2N)n1` [compound 378], the Ki in experiment [1], in experiment [2] and in experiment [3] was 500 to 2800 nM throughout.
`CNC1CCN(c2cccc(C(=O)c3cccnc3N)n2)CC1` [compound 159]: the Ki in experiment [1] lay in the range of 500 to 2800 nM.
Regarding `NCCCOc1ccc(C(F)(F)F)c(C(=O)c2cccnc2N)n1` [compound 405], the Ki in experiment [1], in experiment [2] and in experiment [3] was 500 to 2800 nM each time.
With `Nc1ncc(Br)cc1C(=O)c1cc(N2CCCNCC2)cs1` [compound 83], the Ki in experiment [1] was in the range of 500 to 2800 nM.
Take `CC(C)C[C@H]1CN(c2ccc(-c3cnn(C)c3)c(C(=O)c3cccnc3N)n2)CCN1` [compound 420]: the Ki in experiment [1], in experiment [2] and in experiment [3] was 500 to 2800 nM throughout.
For the compound `Nc1ncccc1C(=O)c1cccc(N2CCCN(C(=O)Oc3ccccc3Cl)CC2)n1` [compound 15], the Ki in experiment [1] was 500 to 2800 nM.
In the case of `Nc1ncccc1C(=O)c1cccc(N2CCCN(C(=O)C3CC3)CC2)n1` [compound 36], in experiment [1], the Ki fell in the range of 500 to 2800 nM.
Turning to `Cc1ccc(C(=O)c2cccnc2N)nc1N1CCCNCC1` [compound 229], the Ki in experiment [1] lay within 500 to 2800 nM.
`CCN(Cc1ccccc1)c1cccc(C(=O)c2cc(Br)cnc2N)n1` [compound 142] yielded a Ki in experiment [1] of 500 to 2800 nM.
Same read-out and setting: in the case of `Nc1ncc(-c2cccnc2)cc1C(=O)c1cccc(N2CCNC(c3ccccc3)C2)n1` (stereo not drawn) [compound 275] it was 500 to 2800 nM; in that of `Nc1ncccc1C(=O)c1cccc(N2CCC(NC3CC3)CC2)n1` [compound 148], 500 to 2800 nM.
In experiment [1], `CN1CCN(c2cccc(C(=O)c3cccnc3N)n2)CC1` [compound 216] showed a Ki of 500 to 2800 nM.
The same measure, in the same setting: in the case of `CN(CC(O)c1ccccc1)c1cccc(C(=O)c2cc(Br)cnc2N)n1` (stereo not drawn) [compound 124] it was 500 to 2800 nM; in that of `Nc1ncc(-c2cc3ccccc3[nH]2)cc1C(=O)c1cccc(N2CCCNCC2)n1` [compound 168], 500 to 2800 nM.

For the origin of these results see patent US20110077237A1, “KINASE INHIBITORS” (VERTEX PHARMACEUTICALS INCORPORATED, priority 2007, published 2011).
